Laboratory results from paper PMC5329948, “Caspase vinyl sulfone small molecule inhibitors prevent axonal degeneration in human neurons and reverse cognitive impairment in Caspase-6-overexpressing mice” (Molecular Neurodegeneration, 2017).

Target: T1, Casp6 in Casp6-transfected HCT116 cells (Homo sapiens, UniProt P55212)
T1 construct: The mammalian constructs encoding human Casp6p20p10 in the pCep4β vector; expressed in transfected cells; host or cells: HCT116 human colon carcinoma cells
T1 sequence (P55212 24-179): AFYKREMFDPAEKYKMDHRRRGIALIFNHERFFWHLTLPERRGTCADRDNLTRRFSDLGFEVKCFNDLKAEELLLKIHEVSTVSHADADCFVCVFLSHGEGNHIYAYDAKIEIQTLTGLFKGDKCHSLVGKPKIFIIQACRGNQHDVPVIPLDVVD
T1 sequence (P55212 194-293): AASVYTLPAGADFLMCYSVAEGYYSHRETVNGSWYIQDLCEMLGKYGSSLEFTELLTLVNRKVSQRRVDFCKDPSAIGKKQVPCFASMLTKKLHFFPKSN
Experiment: Casp6 VEIDase activity in extracts of Casp6p20p10-transfected HCT116 cells treated with inhibitor
Assay type: cell-based
Settings: for Casp6 activity rise within 15 min of inhibitor removal / activity at 100 µM: 100 μM for 2 h, mean ± SEM; for Casp6 activity rise within 15 min of inhibitor removal: then fresh media 15 min; for decrease of Casp6 VEIDase activity within 15 min of treatment / decrease of Casp6 activity: 100 μM, Casp6-transfected HCT116; for decrease of Casp6 activity: 2 h; for activity at 100 µM: HCT-116, then fresh media 2 h, % of initial activity, read-out: Casp6 activity recovered 2 h after inhibitor removal; for IC50: cells treated for 2 h, read-out: IC50 on Casp6 activity in pCep4β-Casp6p20p10-transfected HCT116 cells
Method: HCT116: Human colon carcinoma (HCT116) cells (ATCC, Manassas, VA, USA) were cultured in McCoy’s 5A modified media (Thermo Fisher Scientific, Waltham, MA, USA) supplemented with 10% fetal bovine serum (Thermo Fisher Scientific, Waltham, MA, USA) and transfected with 1 μg of pCep4βCasp6p20p10 mixed with 8 μg of polyethyleneimine (Polysciences Inc., Warrington, PA, USA). Protein expression was allowed for 24 h before treating with vehicle (PBS), 100 μM NWL-117, or 100 μM NWL-154 for 2 h. For NWL inhibitor kinetic experiments, 100 μM of NWL-117 or NWL-154 was added at 120, 90, 60, 30, 15, or 0 min before harvest. […] For recovery time course experiments, after the initial treatment with 100 μM of NWL-117 or −154 for 2 h, the media was replaced with fresh media for 120, 90, 60, 30, 15, or 0 min before harvest. Primary Human CNS neurons: Cortical tissues were obtained from the Birth Defects Research Laboratory (BDRL, University of Washington, Seattle, USA) in accordance with NIH ethical guidelines approved by McGill University’s institutional review board and primary neurons cultured as previously described. Primary human neurons were seeded on poly-L-lysine-coated (5 μg/mL) 6-well plates or glass coverslips coated with poly-L-lysine and laminin (5 μg/mL) (Sigma-Aldrich, Oakville, ON, CA) at a density of 3x10^6 cells/mL. Primary human neurons were pre-treated with 0.1 μM epoxomicin (Enzo LifeSciences, Farmingdale, NY, USA) and 100 μM NWL-117, 100 μM NWL-154, or vehicle (PBS) for 2 h, and serum-deprived for 2 h in the presence of epoxomicin and vehicle (PBS), 100 μM NWL-117, or 100 μM NWL-154 before harvesting or measuring caspase activity with FLICA, as described below.
Recombinant or extracted cellular Casp6 activity: Casp6 activity was assessed by in vitro fluorogenic assays using Ac-Val-Glu-Ile-Asp-(7-Amino-4-trifluoromethylcouramin) (Ac-VEID-AFC: Enzo LifeSciences, NY, USA) as the Casp6 substrate. The activity was measured in Stennicke’s buffer (SB) (20 mM piperazine-N, N-bis (2-ethanesulfonic acid) (PIPES: BioShop Canada Inc, Burlington, Ontario, CA) pH 7.2, 30 mM NaCl, 1 mM ethylenediaminetetraacetic acid (EDTA), 0.1% 3-[(3-cholamidopropyl)-dimethylammonio]-2-hydroxy-1-propanesulfonic acid (CHAPS), 10% sucrose). The reaction mix consisted of either 20 nM RCasp6 or 20–30 μg cellular protein extracts, SB, 10 mM DTT, 10 μM VEID-AFC substrate and deionized water. The activity was measured in a black clear bottom 96-well plate (Costar, Corning, NY, USA) at 50 μL/well in triplicate at 37 °C in the Synergy H4 plate reader (BioTek) at excitation 380 nm and emission 505 nm every two minutes for 100 min. Fluorescence units were converted to the moles of AFC released based on a standard curve of 0–625 picomoles of free AFC. Cleavage rates were calculated from the linear phase of the assay. The activity is considered on a percentage scale where no inhibitor present is equated to 100% activity of the enzyme. Cellular Casp6 activity assay by FLICA: Active Casp6 was labeled within primary human neurons using the fluorescent inhibitor of Casp6 (FLICA) (FAM-VEID-fmk, ImmunoChemistry, Bloomington, MN, USA) following the manufacturer’s protocol. Briefly, FLICA reagent and Hoechst 33342 were added to a black clear bottom 96-well plate containing 100,000 of the treated-primary human neurons for 2 h at 37 °C in 5% CO2. The cells were rinsed twice with wash buffer and fresh media was added to the cells. The fluorescence of FAM-VEID-fmk was measured at 490 nm excitation and 520 nm emission with bandwidth reduced to 8 nm in the Synergy H4 plate reader (BioTek). The Hoechst signal was measured by excitation at 360 nm and emission at 485 nm.
The half-maximal inhibitory concentrations (IC50) for NWL inhibitors (Patent publication # WO/2009/140765, WO/2010/133000, and WO/2012/140500) was determined by incubating 0 to 20 μM NWL-117 and NWL-154 with 20 nM of active site-titrated Casp6 in SB at room temperature for 5 minutes. […]

| Compound | Casp6 activity rise within 15 min of inhibitor removal [%] | decrease of Casp6 VEIDase activity within 15 min of treatment [%] | decrease of Casp6 activity [%] | activity at 100 µM [%] | IC50 [µM] |
| --- | --- | --- | --- | --- | --- |
| CCC(C)[C@H](NC(=O)[C@H](CCC(=O)O)NC(=O)[C@@H](NC(=O)OCc1ccccc1)C(C)C)C(=O)N[C@H](/C=C/S(C)(=O)=O)CC(=O)O (stereo partly shown) [NWL-117] | 43 | 88 | 80 | 85 | 4.82 |
| CCC(C)[C@H](NC(=O)[C@H](CCC(=O)O)NC(=O)[C@@H](NC(=O)OCc1ccccc1)C(C)C)C(=O)N[C@H](/C=C(\Cl)S(C)(=O)=O)CC(=O)O (stereo partly shown) [NWL-154] | 21 | 95 | 96 | 30 | 3.63 |
